Experiments:
V30M mutated TTR = target: T1, V30M mutated TTR (Homo sapiens, UniProt P02766, V50M); experiment: Acid-mediated aggregation experiment (thioflavin T assay) of amyloid fibril formation; type: biochemical; conditions: 10 μM V30M; for EC50 / Inhibition ratio at 20 μM / inhibition at 20 µM: pH 4.5, 310 K, 96 h; for EC50: 0–20 μM compound, thioflavin T fluorescence; for Inhibition ratio at 20 μM / inhibition at 20 µM: 20 μM compound; for inhibition at 20 µM: read-out: Inhibition ratio at 20 μM
T1 construct: made in house
Source text: V30M mutated TTR (V30M), which is most commonly associated with FAP, was used in this study, along with the following commercially available compounds (Fig. 1 and Table 1): α-mangostin (α-M, 1), 3-isomangostin (2) 9-hydroxycalabaxanthone (3), γ-mangostin (γ-M, 4), gartanin (5), 8-deoxygartanin (6), garcinone C (7), norathyriol (8), 1,3,7-trihydroxy-2-prenylxanthone (9), 3,4,5,6-tetrahydroxyxanthone (10), 1,6,7-trihydroxyxanthone (11) and mangiferin (12). Amyloid fibril formation of V30M was induced by acidic pH and the amount of fibril was quantified using thioflavin T in the presence of 0–20 μM of the compounds. The EC50 values were calculated as previously described.
Thioflavin T assay was performed using V30M in [20 mM Tris-HCl pH 8.0 and 150 mM NaCl] and 10 mM stock solutions (ethanol) of xanthone derivatives. Prior to acid-mediated aggregation, 50 μL of V30M (100 μM) was incubated for 30 min in the presence of xanthone derivatives at room temperature. After the incubation, the pH was decreased to 4.5 by adding 450 μL of 50 mM sodium acetate pH 4.5. The sample was gently vortexed and incubated at 310 K for 96 h. At this time, the concentrations of V30M and the xanthone derivatives were 10 μM and 2.5-20 μM, respectively. The solution was 5.5-fold diluted with 200 mM Tris-HCl buffer (pH 8.0). Thioflavin T assays were performed via the addition of 10 mM thioflavin T to 1.8 μM TTR samples. The final concentration of thioflavin T was 20 μM. Fluorescence emission spectra were obtained with excitation and emission wavelengths of 440 and 484 nm, respectively. The fluorescence of the sample without incubation at pH 4.5 was used as a 100% control, and that of the sample in the absence of xanthone derivatives with incubation at pH 4.5 was used as a 0% control. The amyloid fibril inhibitory ratio (%) = 100 × [1 - (fluorescence at each concentration of xanthone derivatives - 100% control)/(0% control - 100% control)]. Amyloid fibril inhibitory curves were fitted using the 4-parameter logistic model by the least squares methods and at least 3 ligand concentrations were used[30]. EC50 was estimated according to this model.

V30M tetramer = target: T2, V30M tetramer (Homo sapiens, UniProt P02766, V50M); experiment: Glutaraldehyde cross-linking assay of quaternary structural stability at acidic pH; type: biochemical; conditions: pH 4.5, 310 K, 10 days, 3.6 μM V30M, compound 5 and 50 μM, SDS-PAGE
T2 construct: made in house
Experimental: The effect of the selected compounds on the quaternary structural stability of V30M at acidic pH was assessed using glutaraldehyde cross-linking followed by SDS-PAGE as previously described.
Glutaraldehyde cross-linking experiments were performed as previously described with some minor modifications. The stock solutions of the selected compounds were prepared in ethanol. Prior to the acid-mediated tetramer dissociation, V30M in solution [20 mM Tris-Cl pH 8.0 and 150 mM NaCl] was incubated with the compounds at room temperature for 30 min. After the incubation period, a 2-fold volume of 0.1 M sodium acetate pH 4.5 was added, and then the sample was incubated at 310 K for 10 days. At this stage, the protein concentration was 3.6 μM, and the compound concentrations were 5 and 50 μM. After the incubation period, 50 μL aliquots of the incubated samples were mixed with 2.5 μL of 25% glutaraldehyde and incubated at room temperature for 4 min, and the reactions were terminated by the addition of 5 μL of sodium borohydrate (7% (w/v) in 0.1 N NaOH). The aliquots were then mixed with SDS sample buffer, boiled and resolved by SDS-PAGE. The protein bands were visualized by silver staining.

T4-binding sites of V30M = target: T3, T4-binding sites of V30M (Homo sapiens, UniProt P02766, V50M); experiment: Resveratrol competitive binding assay; conditions: 2 μM TTR, 5 μM resveratrol, excitation 320 nm
T3 construct: made in house
Experimental: (§1) V30M was titrated with various concentrations of γ-M. A previous study has shown that the binding to TTR induces quenching of the intrinsic fluorescence emission from TTR at 336 nm[22]. […] In addition, we performed a competitive binding assay using trans-resveratrol, which is known to bind to the T4-binding sites of TTR. […] For additional evidence, a pull-down assay was carried out using Sepharose 4B beads coupled with γ-M. V30M was detected in the Sepharose 4B-γ-M-coupled beads but not in Sepharose 4B beads alone or in Sepharose 4B beads alone with free γ-M (Fig. 2c).
(§2) The binding of γ-M to TTR was confirmed by an intrinsic emission fluorescence spectrum assay and a resveratrol competitive binding assay. For the intrinsic fluorescence, the spectra (300–400 nm) of 2 μM TTR in [50 mM Tris-HCl pH 7.5 and 150 mM NaCl] were recorded by exciting the protein at 280 nm[22]. […] The spectra were recorded at 0, 0.5, 2, 5 and 20 μM of γ-M. For the resveratrol competitive binding assay, the spectra (350–500 nm) of 2 μM TTR in [50 mM Tris-HCl pH 7.5 and 150 mM NaCl] were recorded by exciting trans-resveratrol at 320 nm[23]. The solutions of resveratrol and γ-M were sequentially added to the protein solution in the same manner as for the intrinsic fluorescence assay.

V30M = target: T4, V30M (Homo sapiens, UniProt P02766, V50M); experiment: Intrinsic fluorescence quenching titration; type: binding; conditions: 2 μM TTR, excitation 280 nm, 0–20 μM γ-M
T4 construct: made in house
Experimental: as §1, §2

Row | Structure (SMILES) | EC50 (V30M mutated TTR) [µM] | inhibition at 20 µM (V30M mutated TTR) [%] | further results
1 | COc1c(O)cc2oc3cc4c(c(O)c3c(=O)c2c1CC=C(C)C)C=CC(C)(C)O4 [Compound 3, 9-hydroxycalabaxanthone] | > 20 | 29 | Inhibition ratio at 20 μM (V30M mutated TTR): 29 ± 1.5%
2 | COc1c(O)cc2oc3cc(O)c(CC=C(C)C)c(O)c3c(=O)c2c1CC=C(C)C [Compound 1, α-mangostin] | 15 ± 0.75 | 61 | Inhibition ratio at 20 μM (V30M mutated TTR): 61 ± 4.7%; tetramer fraction (V30M tetramer): increased in a dose-dependent manner
3 | O=c1c2cc(O)c(O)cc2oc2cc(O)c([C@@H]3O[C@H](CO)[C@@H](O)[C@H](O)[C@H]3O)c(O)c12 [Compound 12, mangiferin] | > 20 | 8.5 ± 2.1 | –
4 | CC(C)=CCc1c(O)cc2oc3ccc(O)cc3c(=O)c2c1O [Compound 9, 1,3,7-trihydroxy-2-prenylxanthone] | 13 ± 1.1 | 67 ± 2.7 | –
5 | CC(C)=CCc1c(O)c(CC=C(C)C)c2oc3c(O)cccc3c(=O)c2c1O [Compound 6, 8-deoxygartanin] | – | – | inhibitory ability against amyloid fibril formation (V30M mutated TTR; up to 20 μM compound): did not exhibit the inhibitory ability
6 | O=c1c2ccc(O)c(O)c2oc2c(O)c(O)ccc12 [Compound 10, 3,4,5,6-tetrahydroxyxanthone] | > 20 | 25 ± 0.97 | –
7 | O=C(O)c1cc(-c2ccc(F)cc2F)ccc1O [diflunisal, reference compound] | – | 97 ± 1.7 | –
8 | O=c1c2cc(O)c(O)cc2oc2cc(O)cc(O)c12 [Compound 8, norathyriol] | 9.7 ± 0.48 | 79 ± 0.49 | –
9 | CC(C)=CCc1c(O)cc2oc3cc(O)c(O)c(CC=C(C)C)c3c(=O)c2c1O [Compound 4, γ-mangostin] | 7 ± 0.6 | 97 ± 1.3 | fluorescence intensity of resveratrol bound to V30M on addition of compound (T4-binding sites of V30M): significantly decreased; quenching of the intrinsic fluorescence emission from V30M (V30M): induced similar quenching; tetramer fraction (V30M tetramer): increased in a dose-dependent manner
10 | CC(C)=CCc1c(O)c(CC=C(C)C)c2oc3c(O)ccc(O)c3c(=O)c2c1O [Compound 5, gartanin] | > 20 | 30 ± 0.79 | –
11 | CC(C)=CCc1c(O)cc2oc3cc(O)c(O)c(CCC(C)(C)O)c3c(=O)c2c1O [Compound 7, garcinone C] | 10 ± 0.3 | 83 ± 0.23 | –
12 | COc1c(O)cc2oc3cc4c(c(O)c3c(=O)c2c1CC=C(C)C)CCC(C)(C)O4 [Compound 2, 3-isomangostin] | > 20 | 32 | Inhibition ratio at 20 μM (V30M mutated TTR): 32 ± 1.3%
13 | O=c1c2cc(O)c(O)cc2oc2cccc(O)c12 [Compound 11, 1,6,7-trihydroxyxanthone] | 14 ± 0.51 | 64 ± 1.2 | –

Source: article PMC4550876, “Discovery of γ-Mangostin as an Amyloidogenesis Inhibitor” (Scientific Reports, 2015)
